Assay results: BindingDB's records for patent US12466821 (Novartis, 2025)

Target: T1, DNA polymerase catalytic subunit (Human herpesvirus 1 (strain 17), UniProt P04293)
T1 sequence (P04293 whole entry): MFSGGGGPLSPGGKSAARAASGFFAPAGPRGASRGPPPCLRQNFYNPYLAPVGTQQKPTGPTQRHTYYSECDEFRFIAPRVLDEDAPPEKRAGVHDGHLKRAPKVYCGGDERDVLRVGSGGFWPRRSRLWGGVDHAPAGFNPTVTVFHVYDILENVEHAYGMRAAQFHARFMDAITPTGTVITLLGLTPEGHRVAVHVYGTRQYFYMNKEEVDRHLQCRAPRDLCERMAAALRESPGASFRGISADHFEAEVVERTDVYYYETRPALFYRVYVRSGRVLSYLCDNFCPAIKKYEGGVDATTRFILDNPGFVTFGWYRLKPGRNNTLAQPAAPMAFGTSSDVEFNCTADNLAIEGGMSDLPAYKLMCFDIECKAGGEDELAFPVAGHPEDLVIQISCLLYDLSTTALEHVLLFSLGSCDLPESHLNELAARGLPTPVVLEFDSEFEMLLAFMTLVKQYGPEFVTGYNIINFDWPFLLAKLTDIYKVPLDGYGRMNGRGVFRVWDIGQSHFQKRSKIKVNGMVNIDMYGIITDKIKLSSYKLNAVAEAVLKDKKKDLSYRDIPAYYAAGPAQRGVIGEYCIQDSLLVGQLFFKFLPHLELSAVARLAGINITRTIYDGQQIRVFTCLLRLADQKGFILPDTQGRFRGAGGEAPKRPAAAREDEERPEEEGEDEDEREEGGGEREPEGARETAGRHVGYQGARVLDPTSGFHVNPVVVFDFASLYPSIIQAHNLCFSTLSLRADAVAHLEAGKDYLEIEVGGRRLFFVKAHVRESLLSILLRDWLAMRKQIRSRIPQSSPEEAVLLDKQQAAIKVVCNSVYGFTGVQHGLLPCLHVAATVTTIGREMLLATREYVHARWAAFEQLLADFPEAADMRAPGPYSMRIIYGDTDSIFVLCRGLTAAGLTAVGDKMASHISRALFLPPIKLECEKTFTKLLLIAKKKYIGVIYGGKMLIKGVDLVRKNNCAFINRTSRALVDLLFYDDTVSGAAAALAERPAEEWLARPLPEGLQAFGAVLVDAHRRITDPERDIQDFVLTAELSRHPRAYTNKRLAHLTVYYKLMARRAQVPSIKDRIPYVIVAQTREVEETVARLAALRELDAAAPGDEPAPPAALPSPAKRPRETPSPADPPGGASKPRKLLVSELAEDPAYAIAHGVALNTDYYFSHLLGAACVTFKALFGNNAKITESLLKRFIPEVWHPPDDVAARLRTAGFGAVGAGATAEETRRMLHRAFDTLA

Structure (SMILES) | IC50
Cc1cc(C(=O)NCc2ccc(Cl)cc2)c(=O)n2c1C(=O)N(CC1(CS(C)(=O)=O)CC1)CC2 [US12466821, Example 154] | 283 nM
CS(=O)(=O)CCN1CCn2c(ccc(C(=O)NCc3ccc(Cl)cc3)c2=O)C1=O [US12466821, Example 51] | 789 nM
CS(=O)(=O)C1(CCN2CCn3c(ccc(C(=O)NCc4ccc(Cl)cc4)c3=O)C2=O)CC1 [US12466821, Example 170] | 9350 nM
CS(=O)(=O)CCCN1CCn2c(c(C3CC3)cc(C(=O)NCc3ccc(Cl)cc3)c2=O)C1=O [US12466821, Example 130] | 2420 nM
CN(C)C(=O)C1(CN2CCn3c(ccc(C(=O)NCc4ccc(Cl)cc4)c3=O)C2=O)CC1 [US12466821, Example 209] | 1640 nM
O=C(NCc1ccc(Cl)cc1)c1ccc2n(c1=O)CCN(CC1(C(=O)N3CCOCC3)CC1)C2=O [US12466821, Example 211] | 4770 nM
NC1(CN2CCn3c(ccc(C(=O)NCc4ccc(Cl)cc4)c3=O)C2=O)CC1 [US12466821, Example 197] | 3600 nM
CCOC(=O)C1(CN2CCn3c(ccc(C(=O)NCc4ccc(Cl)cc4)c3=O)C2=O)CC1 [US12466821, Example 207] | 2900 nM
CS(=O)(=O)CCCN1CCn2c(c(C(F)(F)F)cc(C(=O)NCc3ccc(Cl)cc3)c2=O)C1=O [US12466821, Example 146] | 14800 nM
N#CCS(=O)(=O)C1(CN2CCn3c(ccc(C(=O)NCc4ccc(Cl)cc4)c3=O)C2=O)CC1 [US12466821, Example 108-1] | 116 nM
CCc1cc(C(=O)NCc2ccc(Cl)cc2)c(=O)n2c1C(=O)N(CCN1CCCS1(=O)=O)CC2 [US12466821, Example 135] | 342 nM
O=C(NCc1ccc(Cl)cc1)c1cc(C(F)F)c2n(c1=O)CCN(CCN1CCCS1(=O)=O)C2=O [US12466821, Example 144] | 1110 nM
O=C(NCc1ccc(Cl)cc1)c1cc(C2CC2)c2n(c1=O)CCN(CCN1CCCS1(=O)=O)C2=O [US12466821, Example 131] | 311 nM
Cc1cc(C(=O)NCc2ccc(Cl)cc2)c(=O)n2c1C(=O)N(CC1(N3CCCS3(=O)=O)CC1)CC2 [US12466821, Example 150] | 65.3 nM
CN(CCN1CCn2c(c(F)cc(C(=O)NCc3ccc(Cl)cc3)c2=O)C1=O)S(C)(=O)=O [US12466821, Example 160] | 2020 nM
CS(=O)(=O)CC1(CN2CCn3c(c(F)cc(C(=O)NCc4ccc(Cl)cc4)c3=O)C2=O)CC1 [US12466821, Example 168] | 292 nM
O=C(NCc1ccc(Cl)cc1)c1cc(CC2CC2)c2n(c1=O)CCN(CCN1CCCS1(=O)=O)C2=O [US12466821, Example 133] | 324 nM
Cc1cc(C(=O)NCc2ccc(Cl)cc2)c(=O)n2c1C(=O)N(CCC1(S(C)(=O)=O)CC1)CC2 [US12466821, Example 151] | 9250 nM
CS(=O)(=O)C1(CCN2CCn3c(c(F)cc(C(=O)NCc4ccc(Cl)cc4)c3=O)C2=O)CC1 [US12466821, Example 165] | 137000 nM
CN(C)S(=O)(=O)C1(CN2CCn3c(ccc(C(=O)NCc4ccc(C#N)cc4)c3=O)C2=O)CC1 [US12466821, Example 90-2] | 19.8 nM
O=C(NCc1ccc(Cl)cc1)c1ccc2n(c1=O)CCN(CC1(C(=O)N3CCC3)CC1)C2=O [US12466821, Example 208] | 4530 nM
CS(=O)(=O)C1(CN2CCn3c(c(F)cc(C(=O)NCc4ccc(Cl)cc4)c3=O)C2=O)CC1 [US12466821, Example 167] | 71.8 nM
N#Cc1ccc(CNC(=O)c2ccc3n(c2=O)CCN(CC2(S(=O)(=O)CCCO)CC2)C3=O)cc1F [US12466821, Example 23] | 124 nM
